The subject of data set [1] is MCF-7 breast cancer cell line. Nature of the data set: Antiproliferation study, MTT cell viability assay. Type of data set: cell-based. The settings on record: Homo sapiens. How it is done: All assays were performed in triplicate for the determination of mean values reported. Compounds were assayed as the free bases isolated from reaction. The human breast tumour cell line MCF-7 was cultured in Eagles minimum essential medium in a […] atmosphere with 10% fetal bovine serum, 2 mM L-glutamine and 100 μg/mL penicillin/streptomycin. The medium was supplemented with 1% non-essential amino acids. MDA-MB-231 cells were maintained in Dulbecco's Modified Eagle's medium (DMEM), supplemented with 10% (v/v) Fetal bovine serum, 2 mM L-glutamine and 100 μg/mL penicillin/streptomycin (complete medium). Cells were trypsinised and seeded at a density of 2.5×10^4 cells/ml in a 96-well plate and incubated at 37° C., […] atmosphere for 24 h. […] Control wells contained the equivalent volume of the vehicle ethanol (1% v/v). The culture medium was then removed and the cells washed with 100 μL phosphate buffered saline (PBS) and 50 μL MTT added, to reach a final concentration of 1 mg/mL MTT added. Cells were incubated for 2 h in darkness at 37° C. At this point solubilization was begun through the addition of 200 μL DMSO and the cells maintained at room temperature in darkness for 20 min to ensure thorough colour diffusion before reading the absorbance. The absorbance value of control cells (no added compound) was set to 100% cell viability and from this graphs of absorbance versus cell density per well were prepared to assess cell viability and from these, graphs of percentage cell viability versus concentration of subject compound added were drawn.
In general terms: Tetrazolium dyes change colour on reduction, which living cells bring about.

Data set [2] in a line: In vitro stability in plasma. Type of data set: in vitro ADME. The settings on record: human plasma.
In data set [3] the test system is human promyelocytic leukaemia HL-60 cells. The data set is described as follows: MTT cell viability assay. It counts as cell-based. The settings on record: read-out: Inhibition of cell viability (IC50 value, nM) HL-60.
Data set [4] concerns human chronic myeloid leukaemia K562 cells. Nature of the data set: MTT cell viability assay. Type of data set: cell-based. The settings on record: read-out: Inhibition of cell viability (IC50 value, nM) K562.
The subject of data set [5] is normal mouse mammary epithelial cells. Nature of the data set: Viability of normal mammary epithelial cells. It counts as cell-based. The settings on record: for Percent viability of normal mammary epithelial cells compared to control: 10 nM, 72 hr treatment; for effects on normal mammary epithelial cells: up to 10 μM. The procedure: The maximum toxicity elicited by these drugs on normal cells at a concentration of 10 nM was only 8% (see Table 4).

Another data set deals with HL-60 parental. The data set is described as follows: Alamar Blue cell viability assay. It counts as cell-based. The settings on record: Homo sapiens, 72 h.
A further data set relates to HL-60-MDR(PGP). The data set is described as follows: Alamar Blue cell viability assay. Type of data set: cell-based, human.
The next data set relates to A2780-parental. The data set is described as follows: Alamar Blue cell viability assay. It counts as cell-based. The settings on record: 72 h. On the technique in general: Resazurin is reduced to fluorescent resorufin, in cell work by metabolically active cells.
The target in another data set is T1, p-glycoprotein (Homo sapiens, UniProt P08183).
T1 construct: HL-60-MDR (overexpress p-glycoprotein); endogenous in cells; host or cells: HL-60-MDR, A2780-ADR
T1 sequence (P08183 whole entry): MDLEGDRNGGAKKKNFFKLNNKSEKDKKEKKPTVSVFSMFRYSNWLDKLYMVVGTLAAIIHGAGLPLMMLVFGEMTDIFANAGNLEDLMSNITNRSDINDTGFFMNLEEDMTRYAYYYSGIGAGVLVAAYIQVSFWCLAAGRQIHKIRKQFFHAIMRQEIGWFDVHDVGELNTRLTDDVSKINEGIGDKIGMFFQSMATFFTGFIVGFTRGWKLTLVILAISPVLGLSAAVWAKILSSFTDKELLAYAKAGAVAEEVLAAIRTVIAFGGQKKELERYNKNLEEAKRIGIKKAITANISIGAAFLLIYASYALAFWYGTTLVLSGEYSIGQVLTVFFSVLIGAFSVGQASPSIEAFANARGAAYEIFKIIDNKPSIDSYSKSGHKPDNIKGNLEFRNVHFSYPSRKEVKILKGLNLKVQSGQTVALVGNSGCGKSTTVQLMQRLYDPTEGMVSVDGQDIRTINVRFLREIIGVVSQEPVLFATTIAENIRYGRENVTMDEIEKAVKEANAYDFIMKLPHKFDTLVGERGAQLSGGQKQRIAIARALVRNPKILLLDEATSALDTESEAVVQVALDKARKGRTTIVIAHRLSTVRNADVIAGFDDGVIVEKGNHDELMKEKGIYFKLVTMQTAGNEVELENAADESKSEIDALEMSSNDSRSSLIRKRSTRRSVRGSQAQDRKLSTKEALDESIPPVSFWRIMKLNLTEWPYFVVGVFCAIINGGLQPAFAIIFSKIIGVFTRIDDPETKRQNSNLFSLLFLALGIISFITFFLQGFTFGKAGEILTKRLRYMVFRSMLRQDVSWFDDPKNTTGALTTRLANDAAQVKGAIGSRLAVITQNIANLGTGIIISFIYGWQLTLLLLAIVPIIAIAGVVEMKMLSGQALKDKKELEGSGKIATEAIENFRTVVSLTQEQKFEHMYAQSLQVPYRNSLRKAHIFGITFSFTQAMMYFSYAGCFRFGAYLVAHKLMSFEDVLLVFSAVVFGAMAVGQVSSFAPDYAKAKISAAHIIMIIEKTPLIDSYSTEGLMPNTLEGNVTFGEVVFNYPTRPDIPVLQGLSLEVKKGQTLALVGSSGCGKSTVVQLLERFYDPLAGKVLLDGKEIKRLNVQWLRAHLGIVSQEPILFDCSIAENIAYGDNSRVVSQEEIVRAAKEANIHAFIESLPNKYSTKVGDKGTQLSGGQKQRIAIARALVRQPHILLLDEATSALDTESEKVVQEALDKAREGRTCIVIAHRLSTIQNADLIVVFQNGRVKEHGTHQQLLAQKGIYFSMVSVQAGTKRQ
The data set is described as follows: Anti-proliferative effects in multi-drug resistant cells, conclusion on efflux. It counts as cell-based. The settings on record: concluded from resistance factors.

Data set [6] concerns primary CML cells (BCR-ABL-positive). Nature of the data set: Apoptosis in ex vivo CML cells, annexin V staining. It counts as cell-based, human. The settings on record: 72 h. An excerpt:
This study is the first pre-clinical evaluation of combretastatins in the treatment of chemotherapy naive and patients with acquired imatinib mesylate resistance (refractory or relapsed disease despite adequate dose and duration). Imatinib mesylate is the first line treatment in BCR-ABL-positive CML chemotherapy. BCR-ABL, a constitutively active protein tyrosine kinase is a product of the Philadelphia chromosome (Ph) translocation t(9;22) and plays a central role in the pathogenesis of CML. […] All cells were treated with a clinically achievable concentration of imatinib mesylate (indicated as STI in FIG. 3) [250 nM]. […] The percentage apoptosis was determined by flow cytometric analysis of annexin-V stained cells.
The percentage of apoptosis in ex-vivo CML cells was determined by annexin V staining. […] Cells were collected by centrifugation at 400×g for 5 min and resuspended in anti-CD-45 diluted 1:50 in RPMI medium. Following a 10 min incubation in the dark at room temperature, cells were centrifuged and washed in Annexin binding buffer (Biosource, Nivelles, Belgium). Cells were again centrifuged and resuspended in Annexin-V-FITC (IQ products, Netherlands) diluted in Annexin binding buffer (1:50). Samples were next incubated in the dark on ice for 15 min. Annexin binding buffer (1 ml) was added to each sample. Samples were collected by centrifugation and resuspended in 0.5 ml of Annexin binding buffer. Cells were read immediately by flow cytometry and analysed by Cellquest software. CML cells were selected and gated based on their low to medium side scatter and low CD45 expression.

The test system of data set [7] is normal mouse mammary epithelial cells. The data set is described as follows: Viability of normal mammary epithelial cells. It counts as cell-based. The settings on record: 72 hr treatment.
The next data set relates to HL-60-BCRP. The data set is described as follows: Alamar Blue cell viability assay.
A further data set relates to A2780-ADR (PGP). Nature of the data set: Alamar Blue cell viability assay.
[8] abbreviates: MCF7, 72 h, antiproliferative activity, MTT, 72 h, read-out: IC50 (μM) MCF-7 cell line.

Read-outs that look alike come from different tables or passages of the source.

Experimental for A2780-ADR (PGP): (§1) Three drug resistant cell lines and respective parental cell lines were assessed. […] Western blot analysis confirmed the overexpression of p-glycoprotein and BCRP in respective cell lines.
(§2) Cells were exposed to multiple concentrations of the indicated compound for 72 h. Cell viability was assessed using the Alamar blue assay and respective IC50 values were calculated. The resistance factor (RF) was calculated by dividing the IC50 of the resistant cell line/IC50 of the parental cell line.
(§3) All cells were cultured in RPMI-1640 Glutamax medium supplemented with 10% FCS media, 100 units/ml penicillin and 100 μg/mIstreptomycin. Cells were maintained at 37° C. in 5% CO2 in a humidified incubator.
(§4) The reduction of Alamar Blue is proportional to the number of viable cells. Cells (200 μl) were plated in triplicate in a 96-well plates (K562, 100,000/ml; HL-60, 300,000/ml; A-2780 50,000/ml). A-2780 cells were plated 24 h prior to treatment. Suspension cells were plated in the log phase of growth and treated immediately. The cells were then treated with either medium alone, vehicle (1% ethanol v/v or 0.1% DMSO v/v) or with a range of concentrations of drug [0.001-10 μM]. After 72 h, Alamar Blue was added to each well (10% of final volume) and fluorescence was read using a 96-well fluorometer with excitation at 530 nm and emission of 590 nm. The blank solution consisted of medium and Alamar Blue and the blank solution was used to calibrate the spectrophotometer to zero absorbance. The relative cell viability (%) related to control wells and was calculated by [A]test/[A]control×100 where [A]test is the absorbance of the drug treated cells and [A]control the absorbance of the vehicle control treated cells. Dose response curves were plotted and IC50 values (concentration of drug resulting in 50% reduction in cell survival) were obtained using the commercial software package Prism (GraphPad Software, Inc., La Jolla, USA). Experiments were performed in triplicate on at least three separate occasions.
Experimental for A2780-parental: as §2
(§5) A2780-parental and A2780-ADR resistant cells were provided by the Beatson Institute of Cancer Research, Glasgow. […] All cells were cultured in RPMI-1640 Glutamax medium supplemented with 10% FCS media, 100 units/ml penicillin and 100 μg/mIstreptomycin. Cells were maintained at 37° C. in 5% CO2 in a humidified incubator.
as §4
Experimental for HL-60 parental: as §2, §5, §4
Experimental for HL-60-BCRP: as §1, §2, §3, §4
Experimental for HL-60-MDR(PGP): as §1, §2, §3, §4
Experimental for p-glycoprotein: as §1, §2

Usually IC50 stands for the point on the concentration scale where inhibition reaches its midpoint. As a reminder, the half-life is the time needed for the level to fall by half in the phase considered. The low end stands for fast loss, the high end for slow loss. Consider `COc1ccc(C2C(Oc3ccccc3)C(=O)N2c2cc(OC)c(OC)c(OC)c2)cc1O` (stereo not shown) [Compound 1, 4-(3-Hydroxy-4-methoxy-phenyl)-3-phenoxy-1-(3,4,5-trimethoxy-phenyl)-azetidin-2-one], for which the half-inhibitory concentration (IC50) in data set [1] (setting [8]) was determined as 0.038 µM. The half-life in data set [2] was 35 h.
As for `COc1ccc(/C=C\c2cc(OC)c(OC)c(OC)c2)cc1O` [CA-4, combretastatin A-4, reference compound], the IC50 turned out to be 4.1 nM in [3]; 3.8 nM in data set [4]; 4.5 nM with HL-60 parental; 3.3 nM in the data set on HL-60-MDR(PGP) (Homo sapiens, HL60/MDR, 72 h); 7.5 nM in the data set on A2780-parental; 3.5 nM in the data set on HL-60-BCRP (Homo sapiens, 72 h). Moreover, the IC50 in the data set on A2780-ADR (PGP) (A2780 ADR, 72 h) was 6.8 nM. For the same compound, the “Percent viability of normal mammary epithelial cells compared to control” value in data set [5] came out at 92%; in [7] (1 nM), 98%; in data set [7] (100 nM), 74.8%; in data set [7] (1 μM), 74.7%; in data set [7] (10 μM), 75.0%. The “effects on normal mammary epithelial cells” value in data set [5] was “minimal effects”. Moreover, the RF in the data set with HL-60-MDR(PGP) (IC50 HL-60-MDR(PGP) / IC50 HL-60 parental) stood at 0.73; in the data set with HL-60-BCRP (IC50 HL-60-BCRP / IC50 HL-60 parental), 0.8; in the data set on A2780-ADR (PGP) (IC50 A2780-ADR (PGP) / IC50 A2780-parental) it was 0.9. Moreover, the “substrate for the p-glycoprotein” value at p-glycoprotein is given as “poor substrates for the p-glycoprotein”. In data set [6] (250 nM each, patient samples), the “apoptosis induction compared with imatinib mesylate” value is given as “more effective inducers of apoptosis than imatinib mesylate”. The “apoptosis in primary CML cells” value in data set [6] (250 nM, chemotherapy naïve (4 samples) and imatinib mesylate resistant (2 samples)) is on record as “induced apoptosis”.
With `C=CC1C(=O)N(c2cc(OC)c(OC)c(OC)c2)C1c1ccc(OC)c(O)c1` (stereo not shown) [Compound 2, 4-(3-Hydroxy-4-methoxy-phenyl)-1-(3,4,5-trimethoxy-phenyl)-3-vinyl-azetidin-2-one], the IC50 is 0.0014 µM in data set [1] (setting [8]); 0.0008 to 0.0031 µM in [1] (MCF7, MTT cell viability assay, read-out: Inhibition of cell viability (IC50 value, nM) MCF-7); 17.1 nM in data set [3]; 26.6 nM in [4]. The “Percent viability of normal mammary epithelial cells compared to control” value in data set [5] was found to be 92.3%; in data set [7] (1 nM) it was 93.1%; in data set [7] (100 nM), 74.4%; in [7] (1 μM), 73.0%; in [7] (10 μM), 73.8%. Besides, in data set [5], the “effects on normal mammary epithelial cells” value was “minimal effects”.

Source of the values: patent publication US20120309734A1, “COMBRETASTATIN DERIVATIVES AND USES THEREFOR” (priority 2009, published 2012).
